Experimental data from BindingDB's records for doi:10.7270/Q2NK3CFW (Nmmlsc, 2009).

Target: Cell division control protein 42 homolog (Homo sapiens, UniProt P60953)
Experiment: wild-type Cdc42 nucleotide-binding inhibitors, SAR follow-up, biochemical, bead-based multiplex flow cytometry, oxadiazole series (AID 2037)
[1] = inactive by the depositor's call

Chain of Cell division control protein 42 homolog (P60953 whole entry): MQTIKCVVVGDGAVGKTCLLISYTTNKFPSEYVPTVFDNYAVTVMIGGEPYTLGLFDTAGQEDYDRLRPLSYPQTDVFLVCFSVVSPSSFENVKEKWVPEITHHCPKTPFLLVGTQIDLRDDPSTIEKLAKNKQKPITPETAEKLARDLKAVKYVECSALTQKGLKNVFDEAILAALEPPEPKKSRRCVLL

## COc1ccc(-c2ccc(CCC(=O)N3CCN(c4cc(C)ccc4C)CC3)s2)cc1
  EC50: > 30000 nM

## COc1cccc(-c2noc(CCC(=O)N3CCN(c4cc(C)ccc4C)CC3)n2)c1
  EC50: 2770 nM

## COc1ccc(-c2noc(CCC(=O)N3CCN(c4cccc(Cl)c4)CC3)n2)cc1
  EC50: > 30000 nM

## COc1ccc(-c2noc(CCCC(=O)N3CCN(c4cc(C)ccc4C)CC3)n2)cc1 [KUC103353N]
  EC50: 6210 nM

## Cc1ccc(-c2noc(CCC(=O)N3CCN(c4cc(C)ccc4C)CC3)n2)cc1 [1-[4-(2,5-dimethylphenyl)-1-piperazinyl]-3-[3-(4-methylphenyl)-1,2,4-oxadiazol-5-yl]-1-propanone]
  EC50: 4370 nM

## Cc1ccc(C)c(N2CCN(C(=O)CCc3nc(-c4ccccc4)no3)CC2)c1 [UNM-0000306070]
  EC50: 4000 nM

## COc1ccc(-c2noc(CCC(=O)N3CCN(c4ccccc4C)CC3)n2)cc1
  EC50: 1710 nM

## COc1ccc(-c2noc(CCC(=O)N3CCN(c4ccccc4)CC3)n2)cc1 [3-[3-(4-methoxyphenyl)-1,2,4-oxadiazol-5-yl]-1-(4-phenylpiperazin-1-yl)propan-1-one]
  EC50: > 30000 nM

## COc1ccc(-c2cccc(CCC(=O)N3CCN(c4cc(C)ccc4C)CC3)c2)cc1 [UNM-0000306127]
[1]
  EC50: 3670 nM

## COc1ccc(-c2noc(CCC(=O)N3CCN(c4ccccc4OC)CC3)n2)cc1 [3-[3-(4-methoxyphenyl)-1,2,4-oxadiazol-5-yl]-1-[4-(2-methoxyphenyl)-1-piperazinyl]-1-propanone]
  EC50: > 30000 nM

## COc1ccc(-c2noc(CCCCC(=O)N3CCN(c4cc(C)ccc4C)CC3)n2)cc1 [1-[4-(2,5-dimethylphenyl)-1-piperazinyl]-5-[3-(4-methoxyphenyl)-1,2,4-oxadiazol-5-yl]-1-pentanone]
  EC50: > 30000 nM

## COc1ccc(-c2noc(CCC(=O)N3CCN(c4ccc(C(F)(F)F)cc4)CC3)n2)cc1 [3-[3-(4-methoxyphenyl)-1,2,4-oxadiazol-5-yl]-1-[4-[4-(trifluoromethyl)phenyl]piperazin-1-yl]propan-1-one]
  EC50: > 30000 nM

## COc1ccc(-c2noc(CCC(=O)N3CCN(c4cccc(C)c4)CC3)n2)cc1 [UNM-0000306125]
  EC50: > 30000 nM

## COc1ccc(-c2noc(CCC(=O)N3CCN(c4ccc(OC)cc4)CC3)n2)cc1 [3-[3-(4-methoxyphenyl)-1,2,4-oxadiazol-5-yl]-1-[4-(4-methoxyphenyl)piperazin-1-yl]propan-1-one]
[1]
  EC50: 450 nM

## COc1ccc(-c2coc(CCC(=O)N3CCN(c4cc(C)ccc4C)CC3)n2)cc1 [1-[4-(2,5-dimethylphenyl)piperazin-1-yl]-3-[4-(4-methoxyphenyl)-1,3-oxazol-2-yl]propan-1-one]
  EC50: 2280 nM

## COc1ccc(-c2noc(CCC(=O)N3CCN(c4cccc(C)c4C)CC3)n2)cc1 [1-[4-(2,3-dimethylphenyl)-1-piperazinyl]-3-[3-(4-methoxyphenyl)-1,2,4-oxadiazol-5-yl]-1-propanone]
[1]
  EC50: 1150 nM

## Cc1ccc(C)c(N2CCN(C(=O)CCc3nc(-c4ccc(Br)cc4)no3)CC2)c1 [UNM-0000306072]
[1]
  EC50: 1620 nM

## Cc1ccc(C)c(N2CCN(C(=O)CCc3nc(-c4ccccc4F)no3)CC2)c1 [KUC103401N]
  EC50: > 30000 nM

## Cc1ccc(C)c(N2CCN(C(=O)CCc3nc(-c4ccc(Cl)cc4)no3)CC2)c1 [UNM-0000306083]
  EC50: 1720 nM

## COc1ccc(-c2noc(CC(=O)N3CCN(c4cc(C)ccc4C)CC3)n2)cc1 [1-[4-(2,5-dimethylphenyl)piperazin-1-yl]-2-[3-(4-methoxyphenyl)-1,2,4-oxadiazol-5-yl]ethanone]
  EC50: > 30000 nM

## Cc1ccc(C)c(N2CCN(C(=O)CCc3nc(-c4ccccc4Br)no3)CC2)c1 [3-[3-(2-bromophenyl)-1,2,4-oxadiazol-5-yl]-1-[4-(2,5-dimethylphenyl)-1-piperazinyl]-1-propanone]
[1]
  EC50: 2340 nM

## Cc1ccc(C)c(N2CCN(C(=O)CCc3nc(-c4cccc(Cl)c4)no3)CC2)c1 [UNM-0000306086]
  EC50: 2180 nM

## COc1ccc(-c2noc(CCC(=O)N3CCN(c4cccc(C(F)(F)F)c4)CC3)n2)cc1 [1-{3-[3-(4-methoxyphenyl)-1,2,4-oxadiazol-5-yl]propanoyl}-4-[3-(trifluoromethyl)phenyl]piperazine]
[1]
  EC50: 1920 nM

## COc1ccc(-c2noc(CCC(=O)N3CCN(c4cc(C)ccc4C)CC3)n2)cc1 [1-[4-(2,5-dimethylphenyl)-1-piperazinyl]-3-[3-(4-methoxyphenyl)-1,2,4-oxadiazol-5-yl]-1-propanone]
[1]
  EC50: 2740 nM

## COc1ccc(-c2noc(CCC(=O)N3CCN(c4ccccc4Br)CC3)n2)cc1 [KUC103370N]
  EC50: 2310 nM

## COc1ccc(-c2noc(CCC(=O)N3CCC(c4cc(C)ccc4C)CC3)n2)cc1 [KUC103432N]
  EC50: 1420 nM

## COc1ccc(-c2noc(CCC(=O)N3CCN(c4ccccc4Cl)CC3)n2)cc1 [1-[4-(2-chlorophenyl)piperazin-1-yl]-3-[3-(4-methoxyphenyl)-1,2,4-oxadiazol-5-yl]propan-1-one]
  EC50: 805 nM

## COc1ccc(-c2noc(CCC(=O)N3CCN(c4ccc(Cl)cc4)CC3)n2)cc1 [UNM-0000306121]
  EC50: > 30000 nM

## Cc1ccc(C)c(N2CCN(C(=O)CCc3nc(-c4ccccc4C)no3)CC2)c1
  EC50: > 30000 nM

## Cc1ccc(C)c(N2CCN(C(=O)CCc3nc(-c4ccc(F)cc4)no3)CC2)c1 [KUC103364N]
[1]
  EC50: 360 nM

## COc1ccc(-c2noc(CCC(=O)N3CCN(c4ccccc4F)CC3)n2)cc1 [1-[4-(2-fluorophenyl)piperazin-1-yl]-3-[3-(4-methoxyphenyl)-1,2,4-oxadiazol-5-yl]propan-1-one]
[1]
  EC50: 655 nM

## Cc1ccc(C)c(N2CCN(C(=O)CCc3nc(-c4cccc(C(F)(F)F)c4)no3)CC2)c1 [KUC103380N]
  EC50: > 30000 nM

## COc1ccc(-c2cc(CCC(=O)N3CCN(c4cc(C)ccc4C)CC3)[nH]n2)cc1 [UNM-0000306150]
  EC50: > 30000 nM

## COc1ccc(-c2noc(CCC(=O)N3CCN(c4cccc(Br)c4)CC3)n2)cc1 [1-[4-(3-bromophenyl)-1-piperazinyl]-3-[3-(4-methoxyphenyl)-1,2,4-oxadiazol-5-yl]-1-propanone]
  EC50: > 30000 nM

## COc1ccc(-c2noc(CCC(=O)N3CCN(c4cccc(OC)c4)CC3)n2)cc1 [KUC103349N]
[1]
  EC50: 12100 nM

## Cc1cccc(-c2noc(CCC(=O)N3CCN(c4cc(C)ccc4C)CC3)n2)c1 [1-[4-(2,5-dimethylphenyl)piperazin-1-yl]-3-[3-(3-methylphenyl)-1,2,4-oxadiazol-5-yl]propan-1-one]
  EC50: 1020 nM

## Cc1ccc(C)c(N2CCN(C(=O)CCc3nc(-c4cccc(F)c4)no3)CC2)c1 [KUC103366N]
  EC50: > 30000 nM

## COc1ccc(-c2noc(CCC(=O)N3CCN(c4ccc(C)cc4)CC3)n2)cc1 [3-[3-(4-methoxyphenyl)-1,2,4-oxadiazol-5-yl]-1-[4-(4-methylphenyl)piperazin-1-yl]propan-1-one]
[1]
  EC50: 566 nM

## COc1ccc(-c2ccc(CCC(=O)N3CCN(c4cc(C)ccc4C)CC3)o2)cc1 [KUC103447N]
  EC50: > 30000 nM

## Cc1ccc(C)c(N2CCN(C(=O)CCc3nc(-c4ccccc4Cl)no3)CC2)c1 [3-[3-(2-chlorophenyl)-1,2,4-oxadiazol-5-yl]-1-[4-(2,5-dimethylphenyl)-1-piperazinyl]-1-propanone]
  EC50: > 30000 nM

## COc1ccc(-c2noc(CCC(=O)N3CCN(c4ccc(Br)cc4)CC3)n2)cc1 [1-[4-(4-bromophenyl)piperazin-1-yl]-3-[3-(4-methoxyphenyl)-1,2,4-oxadiazol-5-yl]propan-1-one]
  EC50: > 30000 nM

## COc1ccc(-c2ccc(CCC(=O)N3CCN(c4cc(C)ccc4C)CC3)[nH]2)cc1 [1-[4-(2,5-dimethylphenyl)piperazin-1-yl]-3-[5-(4-methoxyphenyl)-1H-pyrrol-2-yl]propan-1-one]
  EC50: > 30000 nM

## COc1ccc(-c2noc(CCC(=O)N3CCN(c4cccc(F)c4)CC3)n2)cc1 [1-[4-(3-fluorophenyl)piperazin-1-yl]-3-[3-(4-methoxyphenyl)-1,2,4-oxadiazol-5-yl]propan-1-one]
  EC50: > 30000 nM

## Cc1ccc(C)c(N2CCN(C(=O)CCc3nc(-c4cccc(Br)c4)no3)CC2)c1 [KUC103367N]
[1]
  EC50: 2140 nM

## COc1ccc(-c2noc(CCC(=O)N3CCN(c4ccc(F)cc4)CC3)n2)cc1 [KUC103398N]
  EC50: > 30000 nM

## COc1ccc(-c2cc(CCC(=O)N3CCN(c4cc(C)ccc4C)CC3)on2)cc1 [1-[4-(2,5-dimethylphenyl)piperazin-1-yl]-3-[3-(4-methoxyphenyl)-1,2-oxazol-5-yl]propan-1-one]
  EC50: > 30000 nM

## Cc1ccc(C)c(N2CCN(C(=O)CCc3nc(-c4ccccc4C(F)(F)F)no3)CC2)c1
  EC50: 4950 nM

## Cc1ccc(C)c(N2CCN(C(=O)CCc3nc(-c4ccc(N(C)C)cc4)no3)CC2)c1 [KUC103409N]
[1]
  EC50: 1190 nM

## COc1ccc(-c2noc(CCC(=O)N3CCN(c4ccccc4C(F)(F)F)CC3)n2)cc1 [UNM-0000306082]
[1]
  EC50: 1980 nM

## Cc1ccc(C)c(N2CCN(C(=O)CCc3nc(-c4ccc(C(F)(F)F)cc4)no3)CC2)c1 [1-[4-(2,5-dimethylphenyl)-1-piperazinyl]-3-[3-[4-(trifluoromethyl)phenyl]-1,2,4-oxadiazol-5-yl]-1-propanone]
[1]
  EC50: 3210 nM

## COc1ccccc1-c1noc(CCC(=O)N2CCN(c3cc(C)ccc3C)CC2)n1 [UNM-0000306071]
[1]
  EC50: 1540 nM
